Assays:
SF3B1^WT = SF3B1^WT (Homo sapiens, UniProt O75533+Q7RTV0); test: In vitro splicing assay (IVS), Ad2 pre-mRNA substrate, nuclear extracts; format: biochemical; design: expressed in transfected cells; host or cells: nuclear extract of 293F cells transfected with pFLAG-CMV-2-SF3B1 (the same assay was also run with Nalm-6 nuclear extract); conditions: nuclear extracts from Nalm-6 (SF3B1^WT) cells or 293F cells expressing Flag-tag SF3B1^WT
Method: E7107 is a small-molecule compound that inhibits splicing by targeting the U2 snRNP-associated complex SF3B (Kotake, Y. et al. “Splicing factor SF3b as a target of the antitumor natural product pladienolide.” Nat Chem Biol 3, 570-575, doi:10.1038/nchembio.2007.16 [2007]).
Nuclear extracts were prepared from 293F cells transfected with pFLAG-CMV-2-SF3B1 plasmids, or from isogenic Nalm-6 cells (SBH Sciences). The plasmids were generated by cloning the mxSF3B1 gene into the HindIII and KpnI sites of pFLAG-CMV2 (Sigma), and the mutations mxSF3B1^K700E, mxsF3B1^R1074H and mxSF3B1^K700E-R1074H were introduced using […]. Cell pellets were resuspended in hypotonic buffer (10 mM HEPES pH 7.9, 1.5 mM MgCl2, 10 mM KCl, 0.2 mM PMSF, and 0.5 mM DTT; for Nalm-6 cells, 40 mM KCl was used). The suspension was brought up to a total of five packed cell volumes (PCV). After centrifugation, the supernatant was discarded, and the cells were brought up to 3 PCV with hypotonic buffer, and incubated on ice for 10 minutes. Cells were lysed using a dounce homogenizer and then centrifuged. […] Protein concentration was determined using NanoDrop 8000 UV-Vis spectrophotometer (Thermo Scientific). […]

[1] = test system: Nalm-6 SF3B1^K700K xenograft tumors; test: Splicing modulation and compound concentration in xenograft tumors after single IV dose; format: in vivo, CB17-SCID mice; conditions: single IV dose 5 mg/kg
Method: (§1) In addition, the ability of E7107 to modulate splicing was tested in mice bearing human tumor xenografts. Nalm-6 isogenic xenograft mice were generated by subcutaneously implanting 10×10^6 Nalm-6 isogenic cells into the flank of CB17-SCID mice, and tumors from these mice were collected at different timepoints after a single intravenous (IV) dose of E7107 (5 mg/kg) and analyzed to determine compound concentrations and splicing regulation. RNA was isolated from the tumors using RiboPure™ RNA purification kit (Ambion®) and used for NanoString® assay or qPCR. The RNA was retrotranscribed according to the instructions of the SuperScript® VILO™ cDNA synthesis kit (Invitrogen™) and 0.04 μl of cDNA was used for qPCR. qPCR for pre-mRNA EIF4A1 and mature mRNA […] and pharmacokinetic evaluation were performed as described in Eskens, F. A. et al. “Phase I pharmacokinetic and pharmacodynamic study of the first-in-class spliceosome inhibitor E7107 in patients with advanced solid tumors.” Clin Cancer Res 19, 6296-6304, doi:10.1158/1078-0432.CCR-13-0485 (2013). The primers and probes used for ZDHHC16 were the following: FW 5′-[…] (SEQ ID NO: 1194), RW 5′ […] (SEQ ID NO: 1195) and probe 5′ FAM […] (SEQ ID NO: 1196). The primers and probes used for COASY were the following: FW 5′-CGGTGGTGCAAGTGGAA (SEQ ID NO: 1197), RW 5′-[…] (SEQ ID NO: 1198) and probe 5′-FAM-[…] (SEQ ID NO: 1199).

[2] = test system: Nalm-6 SF3B1^K700E xenograft tumors; test: as above; format: in vivo, CB17-SCID mice; conditions: single IV dose 5 mg/kg
Method: as §1

## CC[C@H](O)[C@@H](C)[C@H]1O[C@@H]1C[C@@](C)(O)/C=C/C=C(\C)[C@H]1OC(=O)C[C@H](O)CC[C@@](C)(O)[C@@H](OC(=O)N2CCN(C3CCCCCC3)CC2)/C=C/[C@@H]1C [Compound E7107]
SF3B1^WT
  inhibition of splicing of Ad2 pre-mRNA in nuclear extracts: able to inhibit splicing
[1]
  canonical splicing in tumor (EIF4A1 pre-mRNA, SLC25A19 mature mRNA), qPCR: modulated canonical splicing
[1]; timepoints after dose
  canonical and aberrant splice mRNA isoforms in tumor, NanoString: downregulated by E7107 as early as one hour following administration
[2]
  abnormal splicing of COASY and ZDHHC16 in tumor, qPCR: downregulated abnormal splicing
  canonical splicing in tumor (EIF4A1 pre-mRNA, SLC25A19 mature mRNA), qPCR: modulated canonical splicing
[2]; timepoints after dose
  canonical and aberrant splice mRNA isoforms in tumor, NanoString: downregulated by E7107 as early as one hour following administration

From patent US11761045B2, “Splice variants associated with neomorphic SF3B1 mutants” (Eisai R&D Management Co., Ltd., priority 2015, dated 2023)
